Tests used:
[1] = biological target: T1, HiBit-BRG1 fusion protein (Homo sapiens, UniProt P51532); assay: HiBiT-BRG1 cell-based degradation assay (Nano-Glo HiBiT Lytic Detection, 24 h); details: HeLa cell line expressing HiBit-BRG1 and LgBit, read-out: BRG1 HiBit Degradation Maximum (%)
T1 construct: expressed in transfected cells
Outline: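 Percent degradation derived from lytic HiBiT signal, normalized to DMSO-treated cells and to cells given 2 μM of a known BRM/BRG1 degrader. The HeLa line stably expressed HiBit-BRG1 and LgBit; treatment lasted 24 h at 5000 cells per well.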

HiBit-BRM fusion protein = biological target: T2, HiBit-BRM fusion protein (Homo sapiens, UniProt P51531); assay: HiBiT-BRM cell-based degradation assay (Nano-Glo HiBiT Lytic Detection, 24 h); details: HeLa cell line expressing HiBiT-BRM
T2 construct: expressed in transfected cells
T2 sequence (P51531 whole entry, the tested form may be a part): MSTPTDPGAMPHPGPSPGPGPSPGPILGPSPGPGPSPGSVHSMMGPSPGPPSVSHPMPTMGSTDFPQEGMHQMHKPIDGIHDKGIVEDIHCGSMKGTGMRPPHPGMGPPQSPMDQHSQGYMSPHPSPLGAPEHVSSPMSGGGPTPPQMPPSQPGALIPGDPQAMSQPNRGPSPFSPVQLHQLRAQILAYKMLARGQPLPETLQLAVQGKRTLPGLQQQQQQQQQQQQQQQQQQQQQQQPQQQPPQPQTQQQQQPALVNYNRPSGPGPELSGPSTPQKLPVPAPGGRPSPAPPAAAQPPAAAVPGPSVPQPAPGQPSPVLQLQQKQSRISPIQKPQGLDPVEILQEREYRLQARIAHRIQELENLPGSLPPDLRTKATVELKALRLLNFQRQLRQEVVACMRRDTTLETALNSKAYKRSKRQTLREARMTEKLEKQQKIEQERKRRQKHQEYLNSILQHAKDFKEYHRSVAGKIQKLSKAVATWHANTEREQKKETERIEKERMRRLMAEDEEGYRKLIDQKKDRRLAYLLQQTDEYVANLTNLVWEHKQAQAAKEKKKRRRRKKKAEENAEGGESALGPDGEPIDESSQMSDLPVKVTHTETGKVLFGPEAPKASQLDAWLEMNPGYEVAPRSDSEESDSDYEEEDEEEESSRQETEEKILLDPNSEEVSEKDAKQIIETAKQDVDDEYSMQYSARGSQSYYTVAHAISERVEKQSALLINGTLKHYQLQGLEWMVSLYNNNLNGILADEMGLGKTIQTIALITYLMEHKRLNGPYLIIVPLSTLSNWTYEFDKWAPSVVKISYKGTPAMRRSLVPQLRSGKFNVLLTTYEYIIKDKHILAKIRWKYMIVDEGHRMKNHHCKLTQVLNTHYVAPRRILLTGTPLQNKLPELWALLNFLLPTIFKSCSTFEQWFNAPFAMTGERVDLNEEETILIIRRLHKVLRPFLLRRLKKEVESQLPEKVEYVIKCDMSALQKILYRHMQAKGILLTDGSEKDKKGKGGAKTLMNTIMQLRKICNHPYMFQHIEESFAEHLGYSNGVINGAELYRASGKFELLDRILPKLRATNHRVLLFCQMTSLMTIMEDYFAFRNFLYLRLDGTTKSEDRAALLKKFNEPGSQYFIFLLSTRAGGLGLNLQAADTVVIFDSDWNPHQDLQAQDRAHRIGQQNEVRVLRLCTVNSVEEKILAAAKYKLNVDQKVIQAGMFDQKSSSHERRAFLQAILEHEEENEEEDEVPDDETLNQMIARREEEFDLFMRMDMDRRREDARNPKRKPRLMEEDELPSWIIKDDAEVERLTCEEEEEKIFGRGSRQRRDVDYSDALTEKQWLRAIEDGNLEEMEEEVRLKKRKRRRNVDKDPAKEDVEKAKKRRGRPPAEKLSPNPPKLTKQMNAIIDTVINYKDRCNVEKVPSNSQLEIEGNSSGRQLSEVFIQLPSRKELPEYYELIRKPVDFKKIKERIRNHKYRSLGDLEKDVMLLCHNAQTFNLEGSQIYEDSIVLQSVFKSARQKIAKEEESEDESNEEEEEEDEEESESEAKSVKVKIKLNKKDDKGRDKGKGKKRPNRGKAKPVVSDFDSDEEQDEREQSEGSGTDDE
Outline: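 HeLa cells stably expressing HiBiT-BRM were dosed with compounds (10-point 3-fold dilutions, 30 μM final top dose, duplicate) for 24 h. HiBiT signal was read by lytic LgBiT complementation luminescence. Percent degradation was normalised to DMSO (high control) and 2 μM of a reference BRM/BRG1 degrader (low control).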

T1 sequence (P51532 whole entry, the tested form may be a part): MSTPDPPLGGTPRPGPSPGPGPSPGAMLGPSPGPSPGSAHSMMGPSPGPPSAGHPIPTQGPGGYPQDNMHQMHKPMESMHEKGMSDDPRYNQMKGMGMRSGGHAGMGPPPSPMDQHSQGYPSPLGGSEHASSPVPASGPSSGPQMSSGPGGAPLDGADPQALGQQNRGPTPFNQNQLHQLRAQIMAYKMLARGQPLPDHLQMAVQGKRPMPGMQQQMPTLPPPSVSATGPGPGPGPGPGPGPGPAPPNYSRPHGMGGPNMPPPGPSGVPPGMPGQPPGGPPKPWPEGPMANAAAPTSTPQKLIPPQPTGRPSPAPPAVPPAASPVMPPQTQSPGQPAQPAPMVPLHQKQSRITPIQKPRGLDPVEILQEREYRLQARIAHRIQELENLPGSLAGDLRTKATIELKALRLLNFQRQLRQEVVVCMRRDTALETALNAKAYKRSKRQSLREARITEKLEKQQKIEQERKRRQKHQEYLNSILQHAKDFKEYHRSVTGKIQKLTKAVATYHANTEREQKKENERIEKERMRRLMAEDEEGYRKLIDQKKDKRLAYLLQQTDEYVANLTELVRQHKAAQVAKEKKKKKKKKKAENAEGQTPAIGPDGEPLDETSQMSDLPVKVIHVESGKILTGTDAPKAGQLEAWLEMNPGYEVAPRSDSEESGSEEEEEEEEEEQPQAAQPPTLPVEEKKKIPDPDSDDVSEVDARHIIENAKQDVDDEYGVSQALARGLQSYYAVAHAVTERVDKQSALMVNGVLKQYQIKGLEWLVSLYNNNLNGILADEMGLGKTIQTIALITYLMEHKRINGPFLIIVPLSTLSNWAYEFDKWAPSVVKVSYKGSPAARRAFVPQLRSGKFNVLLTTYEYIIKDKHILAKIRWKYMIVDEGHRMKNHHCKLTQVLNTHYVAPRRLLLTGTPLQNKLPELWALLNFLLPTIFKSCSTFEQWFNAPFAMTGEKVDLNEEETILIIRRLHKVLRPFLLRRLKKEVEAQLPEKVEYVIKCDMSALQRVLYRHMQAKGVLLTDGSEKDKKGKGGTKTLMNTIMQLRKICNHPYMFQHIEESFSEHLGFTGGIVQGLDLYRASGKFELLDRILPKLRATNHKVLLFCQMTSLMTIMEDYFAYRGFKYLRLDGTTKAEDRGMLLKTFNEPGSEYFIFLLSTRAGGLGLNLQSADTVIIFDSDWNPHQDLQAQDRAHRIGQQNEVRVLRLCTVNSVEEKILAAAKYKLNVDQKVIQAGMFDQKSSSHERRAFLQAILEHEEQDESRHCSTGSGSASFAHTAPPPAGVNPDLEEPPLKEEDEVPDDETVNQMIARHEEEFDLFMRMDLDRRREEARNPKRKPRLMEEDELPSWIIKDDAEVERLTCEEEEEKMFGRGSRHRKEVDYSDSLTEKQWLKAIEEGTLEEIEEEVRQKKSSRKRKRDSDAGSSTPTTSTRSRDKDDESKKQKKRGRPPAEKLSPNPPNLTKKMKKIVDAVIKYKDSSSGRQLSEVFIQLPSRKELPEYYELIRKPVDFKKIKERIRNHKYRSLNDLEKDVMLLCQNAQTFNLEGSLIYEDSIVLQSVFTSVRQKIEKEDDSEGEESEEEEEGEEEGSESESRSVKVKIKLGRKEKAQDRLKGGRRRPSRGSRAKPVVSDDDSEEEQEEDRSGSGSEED

Compound	Dmax [1] [%]	BRM HiBit Degradation Maximum (%) (HiBit-BRM fusion protein)
Cc1ncsc1-c1ccc(CNC(=O)[C@@H]2C[C@@H](O)CN2C(=O)[C@@H](NC(=O)CCCCCCCCCCCCCCCC(=O)N2CC(c3cc4cc(-c5ccccc5O)nnc4[nH]3)C2)C(C)(C)C)cc1 [Compound 22, (2S,4R)-4-hydroxy-1-((S)-2-(17-(3-(3-(2-hydroxyphenyl)-7H-pyrrolo[2,3-c]pyridazin-6-yl)azetidin-1-yl)-17-oxoheptadecanamido)-3,3-dimethylbutanoyl)-N-(4-(4-methylthiazol-5-yl)benzyl)pyrrolidine-2-carboxamide]	< 50	C (“C” indicates maximum degradation < 50%)
O=C1CCC(N2C(=O)c3cccc(OCCOCCOCCC(=O)N4CC(c5cc6cc(-c7ccccc7O)nnc6[nH]5)C4)c3C2=O)C(=O)N1 (stereo not drawn) [Compound 23, 2-(2,6-dioxopiperidin-3-yl)-4-(2-(2-(3-(3-(3-(2-hydroxyphenyl)-7H-pyrrolo[2,3-c]pyridazin-6-yl)azetidin-1-yl)-3-oxopropoxy)ethoxy)ethoxy)isoindoline-1,3-dione]	< 50	C (“C” indicates maximum degradation < 50%)
O=C1CCC(N2C(=O)c3cccc(NCCOCCOCCC(=O)N4CC(c5cc6cc(-c7ccccc7O)nnc6[nH]5)C4)c3C2=O)C(=O)N1 (stereo not drawn) [Compound 27, 2-(2,6-dioxopiperidin-3-yl)-4-((2-(2-(3-(3-(3-(2-hydroxyphenyl)-7H-pyrrolo[2,3-c]pyridazin-6-yl)azetidin-1-yl)-3-oxopropoxy)ethoxy)ethyl)amino)isoindoline-1,3-dione]	< 50	C (“C” indicates maximum degradation < 50%)
O=C1CCC(N2C(=O)c3cccc(NCCCCCCCCCCC(=O)N4CC(c5cc6cc(-c7ccccc7O)nnc6[nH]5)C4)c3C2=O)C(=O)N1 (stereo not drawn) [Compound 28, 2-(2,6-dioxopiperidin-3-yl)-4-((11-(3-(3-(2-hydroxyphenyl)-7H-pyrrolo[2,3-c]pyridazin-6-yl)azetidin-1-yl)-11-oxoundecyl)amino)isoindoline-1,3-dione]	< 50	C (“C” indicates maximum degradation < 50%)
O=C1CCC(N2C(=O)c3cccc(NCCCCCCCCC(=O)N4CC(c5cc6cc(-c7ccccc7O)nnc6[nH]5)C4)c3C2=O)C(=O)N1 (stereo not drawn) [Compound 33, 2-(2,6-dioxopiperidin-3-yl)-4-((9-(3-(3-(2-hydroxyphenyl)-7H-pyrrolo[2,3-c]pyridazin-6-yl)azetidin-1-yl)-9-oxononyl)amino)isoindoline-1,3-dione]	< 50	C (“C” indicates maximum degradation < 50%)
Cc1ncsc1-c1ccc(CNC(=O)[C@@H]2C[C@@H](O)CN2C(=O)[C@@H](NC(=O)CCN2CC(c3c[nH]c4nnc(-c5ccccc5O)cc34)C2)C(C)(C)C)cc1 [Compound 35, (2S,4R)-4-hydroxy-1-((S)-2-(3-(3-(3-(2-hydroxyphenyl)-7H-pyrrolo[2,3-c]pyridazin-5-yl)azetidin-1-yl)propanamido)-3,3-dimethylbutanoyl)-N-(4-(4-methylthiazol-5-yl)benzyl)pyrrolidine-2-carboxamide]	< 50	C (“C” indicates maximum degradation < 50%)
Cc1ncsc1-c1ccc(CNC(=O)[C@@H]2C[C@@H](O)CN2C(=O)[C@@H](NC(=O)CCCCCCCC(=O)N2CC(c3c[nH]c4nnc(-c5ccccc5O)cc34)C2)C(C)(C)C)cc1 [Compound 36, (2S,4R)-4-hydroxy-1-((S)-2-(9-(3-(3-(2-hydroxyphenyl)-7H-pyrrolo[2,3-c]pyridazin-5-yl)azetidin-1-yl)-9-oxononanamido)-3,3-dimethylbutanoyl)-N-(4-(4-methylthiazol-5-yl)benzyl)pyrrolidine-2-carboxamide]	< 50	C (“C” indicates maximum degradation < 50%)
Cc1ncsc1-c1ccc(CNC(=O)[C@@H]2C[C@@H](O)CN2C(=O)[C@@H](NC(=O)CCCCCCCCCC(=O)N2CC(c3c[nH]c4nnc(-c5ccccc5O)cc34)C2)C(C)(C)C)cc1 [Compound 37, (2S,4R)-4-hydroxy-1-((S)-2-(11-(3-(3-(2-hydroxyphenyl)-7H-pyrrolo[2,3-c]pyridazin-5-yl)azetidin-1-yl)-11-oxoundecanamido)-3,3-dimethylbutanoyl)-N-(4-(4-methylthiazol-5-yl)benzyl)pyrrolidine-2-carboxamide]	< 50	C (“C” indicates maximum degradation < 50%)
Cc1ncsc1-c1ccc(CNC(=O)[C@@H]2C[C@@H](O)CN2C(=O)[C@@H](NC(=O)CCCCCCCCCCCCCCCCC(=O)N2CC(c3c[nH]c4nnc(-c5ccccc5O)cc34)C2)C(C)(C)C)cc1 [Compound 38, (2S,4R)-4-hydroxy-1-((S)-2-(18-(3-(3-(2-hydroxyphenyl)-7H-pyrrolo[2,3-c]pyridazin-5-yl)azetidin-1-yl)-18-oxooctadecanamido)-3,3-dimethylbutanoyl)-N-(4-(4-methylthiazol-5-yl)benzyl)pyrrolidine-2-carboxamide]	< 50	C (“C” indicates maximum degradation < 50%)
Cc1ncsc1-c1ccc(CNC(=O)[C@@H]2C[C@@H](O)CN2C(=O)[C@@H](NC(=O)CCCCCCCCCCCCCC(=O)N2CC(c3c[nH]c4nnc(-c5ccccc5O)cc34)C2)C(C)(C)C)cc1 [Compound 39, (2S,4R)-4-hydroxy-1-((S)-2-(15-(3-(3-(2-hydroxyphenyl)-7H-pyrrolo[2,3-c]pyridazin-5-yl)azetidin-1-yl)-15-oxopentadecanamido)-3,3-dimethylbutanoyl)-N-(4-(4-methylthiazol-5-yl)benzyl)pyrrolidine-2-carboxamide]	< 50	C (“C” indicates maximum degradation < 50%)

More lines, main results first:

Dmax [1] [%]	Compound	BRM HiBit Degradation Maximum (%) (HiBit-BRM fusion protein)
< 50	O=C1CCC(N2C(=O)c3ccc(OCCOCCOCCC(=O)N4CC(c5cc6cc(-c7ccccc7O)nnc6[nH]5)C4)cc3C2=O)C(=O)N1 (stereo not drawn) [Compound 24, 2-(2,6-dioxopiperidin-3-yl)-5-(2-(2-(3-(3-(3-(2-hydroxyphenyl)-7H-pyrrolo[2,3-c]pyridazin-6-yl)azetidin-1-yl)-3-oxopropoxy)ethoxy)ethoxy)isoindoline-1,3-dione]	C (“C” indicates maximum degradation < 50%)
< 50	O=C1CCC(N2C(=O)c3ccc(OCCN4CCC(C(=O)N5CC(c6cc7cc(-c8ccccc8O)nnc7[nH]6)C5)CC4)cc3C2=O)C(=O)N1 (stereo not drawn) [Compound 25, 2-(2,6-dioxopiperidin-3-yl)-5-(2-(4-(3-(3-(2-hydroxyphenyl)-7H-pyrrolo[2,3-c]pyridazin-6-yl)azetidine-1-carbonyl)piperidin-1-yl)ethoxy)isoindoline-1,3-dione]	C (“C” indicates maximum degradation < 50%)
< 50	O=C1CCC(N2C(=O)c3ccc(N4CCN(CCC(=O)N5CC(c6cc7cc(-c8ccccc8O)nnc7[nH]6)C5)CC4)cc3C2=O)C(=O)N1 (stereo not drawn) [Compound 26, 2-(2,6-dioxopiperidin-3-yl)-5-(4-(3-(3-(3-(2-hydroxyphenyl)-7H-pyrrolo[2,3-c]pyridazin-6-yl)azetidin-1-yl)-3-oxopropyl)piperazin-1-yl)isoindoline-1,3-dione]	C (“C” indicates maximum degradation < 50%)
< 50	O=C1CCC(N2C(=O)c3ccc(NCCOCCOCCC(=O)N4CC(c5cc6cc(-c7ccccc7O)nnc6[nH]5)C4)cc3C2=O)C(=O)N1 (stereo not drawn) [Compound 29, 2-(2,6-dioxopiperidin-3-yl)-5-((2-(2-(3-(3-(3-(2-hydroxyphenyl)-7H-pyrrolo[2,3-c]pyridazin-6-yl)azetidin-1-yl)-3-oxopropoxy)ethoxy)ethyl)amino)isoindoline-1,3-dione]	C (“C” indicates maximum degradation < 50%)
< 50	O=C1CCC(N2C(=O)c3cccc(OCCCCCCCC(=O)N4CC(c5cc6cc(-c7ccccc7O)nnc6[nH]5)C4)c3C2=O)C(=O)N1 (stereo not drawn) [Compound 30, 2-(2,6-dioxopiperidin-3-yl)-4-((8-(3-(3-(2-hydroxyphenyl)-7H-pyrrolo[2,3-c]pyridazin-6-yl)azetidin-1-yl)-8-oxooctyl)oxy)isoindoline-1,3-dione]	C (“C” indicates maximum degradation < 50%)
< 50	O=C1CCC(N2C(=O)c3cccc(OCCCCCCC(=O)N4CC(c5cc6cc(-c7ccccc7O)nnc6[nH]5)C4)c3C2=O)C(=O)N1 (stereo not drawn) [Compound 31, 2-(2,6-dioxopiperidin-3-yl)-4-((7-(3-(3-(2-hydroxyphenyl)-7H-pyrrolo[2,3-c]pyridazin-6-yl)azetidin-1-yl)-7-oxoheptyl)oxy)isoindoline-1,3-dione]	C (“C” indicates maximum degradation < 50%)
< 50	O=C1CCC(N2C(=O)c3ccc(NCCCCCCCCCCC(=O)N4CC(c5cc6cc(-c7ccccc7O)nnc6[nH]5)C4)cc3C2=O)C(=O)N1 (stereo not drawn) [Compound 32, 2-(2,6-dioxopiperidin-3-yl)-5-((11-(3-(3-(2-hydroxyphenyl)-7H-pyrrolo[2,3-c]pyridazin-6-yl)azetidin-1-yl)-11-oxoundecyl)amino)isoindoline-1,3-dione]	C (“C” indicates maximum degradation < 50%)
< 50	O=C1CCC(N2C(=O)c3ccc(N4CC5(CN(CCC(=O)N6CC(c7cc8cc(-c9ccccc9O)nnc8[nH]7)C6)C5)C4)cc3C2=O)C(=O)N1 (stereo not drawn) [Compound 34, 2-(2,6-dioxopiperidin-3-yl)-5-(6-(3-(3-(3-(2-hydroxyphenyl)-7H-pyrrolo[2,3-c]pyridazin-6-yl)azetidin-1-yl)-3-oxopropyl)-2,6-diazaspiro[3.3]heptan-2-yl)isoindoline-1,3-dione]	C (“C” indicates maximum degradation < 50%)

Reference: patent publication US20240024488A1, “COMPOUNDS AND USES THEREOF” (Foghorn Therapeutics Inc., priority 2020, published 2024)
